Assay results taken from patent US7026347B2, “Porphyrin-polyamine conjugates for cancer therapy” (CellGate, Inc., priority 2002, dated 2006).

How the values were obtained:
Assay type in all cases: cell-based
[1] = test system: DuPro human prostate tumor cells; assay: MTT assay, human prostate tumor cell growth, DuPro; settings: 144 h, MTT six days after drug treatment, read-out: ID50 (μM) values for Human prostate tumor Cell Lines DuPro
Method: (§1) A conventional MTT assay was used to evaluate percent cell survival. Exponentially growing monolayer cells were plated in 96-well plates at a density of 500 cells per well and allowed to grow for 24 hours. Serial dilutions of the drugs were added to the wells. Six days after drug treatment, 25 μl of MTT solution (5 mg/ml) was added to each well and incubated for 4 hours at 37° C. Then 100 μl of lysis buffer (20% sodium dodecyl sulfate, 50% DMF, and 0.8% acetic acid, pH 4.7) was added to each well and incubated for an additional 22 hours. A microplate reader (“EMAX”-brand, Molecular Devices, Sunnyvale, Calif.) set at 570 nm was used to determine the optical density of the cultures. Results are expressed as a ratio of the optical density in drug-treated wells to the optical density in wells treated with vehicle only. FIGS. 1–13 also indicate the effects of the compounds on various cell lines.

[2] = test system: PC-3 human prostate tumor cells; assay: MTT assay, human prostate tumor cell growth, PC-3; settings: 144 h, PC-3 cells, MTT six days after drug treatment, read-out: ID50 (μM) values for Human prostate tumor Cell Lines PC-3
Method: as §1

[3] = test system: BxPC-3 human pancreatic cancer cells; assay: MTT assay, human pancreatic cancer cell growth, BxPC-3; settings: 144 h, BxPC-3 cells, MTT six days after drug treatment, read-out: ID50(μM) values for Human Pancreatic Cancer Cell Lines BxPC-3
Method: as §1

[4] = test system: Panc-1 human pancreatic cancer cells; assay: MTT assay, human pancreatic cancer cell growth, Panc-1; settings: 144 h, Panc-1 cells, MTT six days after drug treatment, read-out: ID50(μM) values for Human Pancreatic Cancer Cell Lines Panc-1
Method: as §1

[5] = test system: Human Brain Tumor Cells U251MG NCI; assay: MTT assay, human brain tumor cell growth, U251MG NCI; settings: U-251, 144 h, MTT six days after drug treatment, read-out: ID50(μM) values for Human Brain Tumor Cells U251MG NCI
Method: as §1

[6] = test system: Tsu-pr1 human prostate tumor cells; assay: MTT assay, human prostate tumor cell growth, Tsu-pr1; settings: 144 h, MTT six days after drug treatment, read-out: ID50 (μM) values for Human prostate tumor Cell Lines Tsu-pr1
Method: as §1

[7] = test system: Tsu-pr1-ADR human prostate tumor cells; assay: MTT assay, human prostate tumor cell growth, Tsu-pr1-ADR; settings: 144 h, MTT six days after drug treatment, read-out: ID50 (μM) values for Human prostate tumor Cell Lines Tsu-pr1-ADR
Method: as §1

| Compound | IC50 [1] [µM] | IC50 [2] [µM] | IC50 [3] [µM] | IC50 [4] [µM] | IC50 [5] [µM] | IC50 [6] [µM] | IC50 [7] [µM] |
| --- | --- | --- | --- | --- | --- | --- | --- |
| CCNCCCCNCC1CC1CNCCCCN(CC)C(=O)CCC1=C(C)c2cc3[nH]c(cc4nc(cc5[nH]c(cc1n2)c(CCC(=O)N(CC)CCCCNCC1CC1CNCCCCNCC)c5C)C(CC)=C4C)c(CC)c3C (stereo not drawn) [SL-11217] | 3.6 | 2.8 | 6.87 | 6.38 | 5.65 |  |  |
| CCCCCCCCCCCCCC1CCN(CCCNC(=O)CCC2=C(C)c3cc4[nH]c(cc5nc(cc6[nH]c(cc2n3)c(CCC(=O)NCCCN2CCCN(C)CCCCN(C)CCCN(C)C(CCCCCCCCCCCCC)CC2)c6C)C(CC)=C5C)c(CC)c4C)CCCN(C)CCCCN(C)CCCN1C (stereo not drawn) [SL-11237] | 1.9 | 1.7 | 5.92 | 12.5 | 2.3 | 1.87 | 12.6 |
